Laboratory results published in patent publication US6160004A, “C-10 carbon-substituted artemisinin-like trioxane compounds having antimalarial, antiproliferative and antitumor activities” (priority 1998, dated 2000).

Legend:
[1] = system: SR; assay: cells; assay type: cell-based; details: Homo sapiens, 48 h, read-out: Log10 LC50 (converted)
[2] = system: BT-549; assay: cells; assay type: cell-based; details: Homo sapiens, BT-549, 48 h, read-out: Log10 LC50 (converted)
[3] = system: SF-295; assay: cells; assay type: cell-based; details: Homo sapiens
[4] = system: OVCAR-3; assay: cells; assay type: cell-based; details: Homo sapiens
[5] = system: MCF7; assay: cells; assay type: cell-based; details: Homo sapiens
[6] = system: SNB-19; assay: cells; assay type: cell-based; details: Homo sapiens
[7] = system: MDA-N; assay: NCI 60 cell line panel screening assay (SRB), MDA-N; assay type: cell-based; details: Homo sapiens, breast cancer, 48 h
[8] = system: M14; assay: NCI 60 cell line panel screening assay (SRB), M14; details: Homo sapiens, M14, 48 h
[9] = system: SF-539; assay: cells; assay type: cell-based; details: Homo sapiens, SF-539, 48 h, read-out: Log10 LC50 (converted)
[10] = system: HCT-15; assay: cells; assay type: cell-based; details: Homo sapiens, HCT-15, 48 h, read-out: Log10 LC50 (converted)
[11] = system: CAKI-1; assay: NCI 60 cell line panel screening assay (SRB), CAKI-1; assay type: cell-based; details: Homo sapiens; CAKI-1, renal cancer, 48 h; read-out: Log10 TGI (converted)
[12] = system: MDA-MB231/ATCC; assay: cells; assay type: cell-based; details: Homo sapiens, MDA-MB-231, breast cancer, 48 h
[13] = system: MCF7/ADR-RES; assay: cells; assay type: cell-based; details: Homo sapiens
[14] = system: SK-MEL-2; assay: cells; assay type: cell-based; details: Homo sapiens, SK-MEL-2, 48 h, read-out: Log10 LC50 (converted)
[15] = system: MALME-3M; assay: cells; assay type: cell-based; details: Homo sapiens, MALME-3M, melanoma, 48 h
[16] = system: T-47D; assay: NCI 60 cell line panel screening assay (SRB), T-47D; details: Homo sapiens, T47D, 48 h, read-out: Log10 LC50 (converted)
[17] = system: SK-OV-3; assay: cells; assay type: cell-based; details: Homo sapiens
[18] = MCF7, 48 h, read-out: Log10 LC50 (converted)
[19] = read-out: Log10 LC50 (converted)
[20] = read-out: Log10 GI50 (converted)

## C[C@H]1[C@@H](F)O[C@@H]2O[C@@]3(C)CC[C@H]4[C@H](C)CC[C@@H]1[C@@]24OO3 [Compound VI, 10β-Fluoro-10-deoxoartemisinin]
[1]
  CC50: > 100 µM
[2]
  CC50: > 100 µM
[3]; SF-295, 48 h, read-out: Log10 LC50 (converted)
  CC50: > 100 µM
[3]; SF-295, CNS cancer, 48 h, read-out: Log10 GI50 (converted)
  GI50: 17 µM
[3]; SF-295, CNS cancer, 48 h, read-out: Log10 TGI
  IC (TGI): > 100 µM
[4]; OVCAR-3, 48 h, read-out: Log10 LC50 (converted)
  CC50: > 100 µM
[4]; OVCAR-3, ovarian cancer, 48 h, read-out: Log10 TGI (converted)
  IC (TGI): > 100 µM
[5]; [18]
  CC50: > 100 µM
[5]; MCF7, breast cancer, 48 h, read-out: Log10 TGI
  IC (TGI): > 100 µM
[6]; SNB-19, 48 h, read-out: Log10 LC50 (converted)
  CC50: > 100 µM
[6]; SNB-19, CNS cancer, 48 h, read-out: Log10 TGI
  IC (TGI): > 100 µM
[7]; [19]
  CC50: > 100 µM
[7]; read-out: Log10 TGI (converted)
  IC (TGI): 21.4 µM
[8]; [19]
  CC50: > 100 µM
[8]; read-out: Log10 TGI
  IC (TGI): > 100 µM
[9]
  CC50: > 100 µM
[10]
  CC50: > 100 µM
[11]
  IC (TGI): 21.4 µM
[12]; [20]
  GI50: 13.2 µM
[12]; [19]
  CC50: > 100 µM
[13]; [18]
  CC50: > 100 µM
[13]; MCF7/ADR-RES, breast cancer, 48 h, read-out: Log10 TGI
  IC (TGI): > 100 µM
[14]
  CC50: > 100 µM
[15]; [20]
  GI50: 2.34 µM
[15]; read-out: Log10 TGI
  IC (TGI): > 100 µM
[16]
  CC50: > 100 µM
[17]; SK-OV-3, 48 h, read-out: Log10 LC50 (converted)
  CC50: > 100 µM
[17]; SK-OV-3, ovarian cancer, 48 h, read-out: Log10 GI50 (converted)
  GI50: 24 µM
[17]; SK-OV-3, ovarian cancer, 48 h, read-out: Log10 TGI (converted)
  IC (TGI): > 100 µM
